Test results: US6461997B1, “Triazole sulfones having herbicidal activity” (Monsanto Technology LLC, priority 1999, dated 2002)

Test system: LAMPU (purple deadnettle)
Assay: Pre-emergence herbicidal activity, cool season
Format: in vivo, Lamium purpureum
Details: lowest tested rate with 80% or greater inhibition; rates 300, 100, 30, 10 g/ha; about 14 days
Experimental: (§1) Tables 5 to 8 summarize results of tests conducted as described below to determine the pre-emergence herbicidal activity, in the form of a GR80 value, of illustrative compounds of this invention. […] Compounds of the invention were typically applied at rates of 300, 100, 30, and 10 g/ha. Where herbicidal activity was evident but 80% inhibition was not achieved at the highest rate tested, an asterisk (*) is shown in the following tables.
(§2) The pre-emergence tests were conducted by the following procedure. Topsoil was sieved to pass through a 1.27 cm screen. Fertilizer was added to the topsoil and the mixture was then sterilized by heating. The topsoil mixture was placed in a pot and compacted to a depth of 1.0 to 1.25 cm from the top of the pot. Seeds of each of several monocotyledonous and dicotyledonous annual plant species were placed on top of the soil. Additional soil was subsequently placed over the seeds to level-fill the pot. A known amount of each test compound dissolved or suspended in an appropriate organic solvent was diluted with a 50:50 mix of acetone and water and applied to the surface of the soil. After treatment the plants were placed in a greenhouse where they received 0.64 cm of overhead irrigation. All subsequent watering consisted of a light overhead mist and/or subirrigation as needed for germination and growth. Tables 5 and 6 below relate to warm season plant species which were placed after pre-emergence treatment in a greenhouse with a 30/21° C. day/night temperature regime. Tables 7 and 8 below relates to cool season plant species placed after pre-emergence treatment in a greenhouse or growth chamber with an 18/13° C. day/night temperature regime.
(§3) Approximately 14 days after planting and treating, the plants were observed and herbicidal efficacy recorded as percent inhibition by comparison with untreated plants.
(§4) The plant species usually regarded as weeds which were utilized in the tests are identified in the tables below according to the following legend, in which “d” indicates a dicotyledonous species and “m” a monocotyledonous species. All monocotyledonous species included in the tests herein are grasses.

Structure (SMILES) | Pre-emergence activity GR80, LAMPU
CCN(CC)C(=S)n1cnc(S(=O)(=O)C(F)(F)C(F)(F)Br)n1 [Example 82] | 300 g/ha
CON(C)C(=O)n1cnc(S(=O)(=O)C(F)(F)Br)n1 [Example 45] | [empty]
COCCN(C)C(=O)n1cnc(S(=O)(=O)C(F)(F)C(F)F)n1 [Example 64] | 300 g/ha

Test system: SORHA (johnsongrass (seedling))
Assay: Pre-emergence herbicidal activity, warm season
Format: in vivo, Sorghum halepense
Details: GR80 = lowest tested rate (300, 100, 30, 10 g/ha) with 80% or greater inhibition; approx. 14 days after treating; 30/21° C.
Experimental: as §1, §2, §3, §4

Structure (SMILES) | Pre-emergence activity (GR80) SORHA
CCN(CC)C(=S)n1cnc(S(=O)(=O)C(F)(F)C(F)(F)Br)n1 [Example 82] | 300 g/ha

Test system: SETFA (giant foxtail)
Assay: Pre-emergence herbicidal activity, warm season
Format: in vivo, Setaria faberi
Details: GR80 = lowest tested rate (300, 100, 30, 10 g/ha) with 80% or greater inhibition; approx. 14 days after treating; 30/21° C.
Experimental: as §1, §2, §3, §4

Structure (SMILES) | Pre-emergence activity (GR80) SETFA
CCN(CC)C(=S)n1cnc(S(=O)(=O)C(F)(F)C(F)(F)Br)n1 [Example 82] | 300 g/ha
COCCN(C)C(=O)n1cnc(S(=O)(=O)C(F)(F)C(F)F)n1 [Example 64] | 300 g/ha

Test system: GALAP (catchweed bedstraw)
Assay: Pre-emergence herbicidal activity, cool season
Format: in vivo, Galium aparine
Details: lowest tested rate with 80% or greater inhibition; rates 300, 100, 30, 10 g/ha; about 14 days
Experimental: as §1, §2, §3, §4

Structure (SMILES) | Pre-emergence activity GR80, GALAP
CCN(CC)C(=S)n1cnc(S(=O)(=O)C(F)(F)C(F)(F)Br)n1 [Example 82] | [empty]
CON(C)C(=O)n1cnc(S(=O)(=O)C(F)(F)Br)n1 [Example 45] | [empty]
COCCN(C)C(=O)n1cnc(S(=O)(=O)C(F)(F)C(F)F)n1 [Example 64] | 300 g/ha

Test system: SINAR (wild mustard)
Assay: Pre-emergence herbicidal activity, cool season
Format: in vivo, Sinapis arvensis
Details: lowest tested rate with 80% or greater inhibition; rates 300, 100, 30, 10 g/ha; about 14 days
Experimental: as §1, §2, §3, §4

Structure (SMILES) | Pre-emergence activity GR80, SINAR
CCN(CC)C(=S)n1cnc(S(=O)(=O)C(F)(F)C(F)(F)Br)n1 [Example 82] | 300 g/ha
CON(C)C(=O)n1cnc(S(=O)(=O)C(F)(F)Br)n1 [Example 45] | 300 g/ha
COCCN(C)C(=O)n1cnc(S(=O)(=O)C(F)(F)C(F)F)n1 [Example 64] | 100 g/ha

Test system: CHEAL (common lambsquarters)
Assay: Pre-emergence herbicidal activity, warm season
Format: in vivo, Chenopodium album
Details: GR80 = lowest tested rate (300, 100, 30, 10 g/ha) with 80% or greater inhibition; approx. 14 days after treating; 30/21° C.
Experimental: as §1, §2, §3, §4

Structure (SMILES) | Pre-emergence activity (GR80) CHEAL
CCN(CC)C(=S)n1cnc(S(=O)(=O)C(F)(F)C(F)(F)Br)n1 [Example 82] | 300 g/ha
CON(C)C(=O)n1cnc(S(=O)(=O)C(F)(F)Br)n1 [Example 45] | 300 g/ha

Test system: VERPE (creeping speedwell)
Assay: Pre-emergence herbicidal activity, cool season
Format: in vivo, Veronica persicaria
Details: lowest tested rate with 80% or greater inhibition; rates 300, 100, 30, 10 g/ha; about 14 days
Experimental: as §1, §2, §3, §4

Structure (SMILES) | Pre-emergence activity GR80, VERPE
CCN(CC)C(=S)n1cnc(S(=O)(=O)C(F)(F)C(F)(F)Br)n1 [Example 82] | 300 g/ha
CON(C)C(=O)n1cnc(S(=O)(=O)C(F)(F)Br)n1 [Example 45] | [empty]
COCCN(C)C(=O)n1cnc(S(=O)(=O)C(F)(F)C(F)F)n1 [Example 64] | 30 g/ha

Test system: POROL (common purslane)
Assay: Pre-emergence herbicidal activity, warm season
Format: in vivo, Portulaca oleracea
Details: GR80 = lowest tested rate (300, 100, 30, 10 g/ha) with 80% or greater inhibition; approx. 14 days after treating; 30/21° C.
Experimental: as §1, §2, §3, §4

Structure (SMILES) | Pre-emergence activity (GR80) POROL
CCN(CC)C(=S)n1cnc(S(=O)(=O)C(F)(F)C(F)(F)Br)n1 [Example 82] | 30 g/ha
COCCN(C)C(=O)n1cnc(S(=O)(=O)C(F)(F)C(F)F)n1 [Example 64] | 300 g/ha

Test system: STEME (common chickweed)
Assay: Pre-emergence herbicidal activity, cool season
Format: in vivo, Stellaria media
Details: lowest tested rate with 80% or greater inhibition; rates 300, 100, 30, 10 g/ha; about 14 days
Experimental: as §1, §2, §3, §4

Structure (SMILES) | Pre-emergence activity GR80, STEME
CCN(CC)C(=S)n1cnc(S(=O)(=O)C(F)(F)C(F)(F)Br)n1 [Example 82] | 300 g/ha
CON(C)C(=O)n1cnc(S(=O)(=O)C(F)(F)Br)n1 [Example 45] | 300 g/ha
COCCN(C)C(=O)n1cnc(S(=O)(=O)C(F)(F)C(F)F)n1 [Example 64] | 100 g/ha

Test system: BRAPP (broadleaf signalgrass)
Assay: Pre-emergence herbicidal activity, warm season
Format: in vivo, Brachiaria platyphylla
Details: GR80 = lowest tested rate (300, 100, 30, 10 g/ha) with 80% or greater inhibition; approx. 14 days after treating; 30/21° C.
Experimental: as §1, §2, §3, §4

Structure (SMILES) | Pre-emergence activity (GR80) BRAPP
CCN(CC)C(=S)n1cnc(S(=O)(=O)C(F)(F)C(F)(F)Br)n1 [Example 82] | 300 g/ha
COCCN(C)C(=O)n1cnc(S(=O)(=O)C(F)(F)C(F)F)n1 [Example 64] | 300 g/ha

Test system: PANMI (wild proso millet)
Assay: Pre-emergence herbicidal activity, warm season
Format: in vivo, Panicum miliaceum
Details: GR80 = lowest tested rate (300, 100, 30, 10 g/ha) with 80% or greater inhibition; approx. 14 days after treating; 30/21° C.
Experimental: as §1, §2, §3, §4

Structure (SMILES) | Pre-emergence activity (GR80) PANMI
CCN(CC)C(=S)n1cnc(S(=O)(=O)C(F)(F)C(F)(F)Br)n1 [Example 82] | 300 g/ha
COCCN(C)C(=O)n1cnc(S(=O)(=O)C(F)(F)C(F)F)n1 [Example 64] | 100 g/ha

Test system: DIGSA (large crabgrass)
Assay: Pre-emergence herbicidal activity, warm season
Format: in vivo, Digitaria sanguinalis
Details: GR80 = lowest tested rate (300, 100, 30, 10 g/ha) with 80% or greater inhibition; approx. 14 days after treating; 30/21° C.
Experimental: as §1, §2, §3, §4

Structure (SMILES) | Pre-emergence activity (GR80) DIGSA
COCCN(C)C(=O)n1cnc(S(=O)(=O)C(F)(F)C(F)F)n1 [Example 64] | 300 g/ha

Test system: SASKR (russian thistle)
Assay: Pre-emergence herbicidal activity, cool season
Format: in vivo, Salsola kali
Details: lowest tested rate with 80% or greater inhibition; rates 300, 100, 30, 10 g/ha; about 14 days
Experimental: as §1, §2, §3, §4

Structure (SMILES) | Pre-emergence activity GR80, SASKR
CCN(CC)C(=S)n1cnc(S(=O)(=O)C(F)(F)C(F)(F)Br)n1 [Example 82] | [empty]
CON(C)C(=O)n1cnc(S(=O)(=O)C(F)(F)Br)n1 [Example 45] | [empty]
COCCN(C)C(=O)n1cnc(S(=O)(=O)C(F)(F)C(F)F)n1 [Example 64] | 10 g/ha

Test system: ALOMY (blackgrass)
Assay: Pre-emergence herbicidal activity, cool season
Format: in vivo, Alopecurus myosuroides
Details: GR80 = lowest tested rate (300, 100, 30, 10 g/ha) with 80% or greater inhibition; approx. 14 days after treating; 18/13° C.
Experimental: as §1, §2, §3, §4

Structure (SMILES) | Pre-emergence activity (GR80) ALOMY
COCCN(C)C(=O)n1cnc(S(=O)(=O)C(F)(F)C(F)F)n1 [Example 64] | 300 g/ha

Test system: SETVI (green foxtail)
Assay: Pre-emergence herbicidal activity, cool season
Format: in vivo, Setaria viridis
Details: GR80 = lowest tested rate (300, 100, 30, 10 g/ha) with 80% or greater inhibition; approx. 14 days after treating; 18/13° C.
Experimental: as §1, §2, §3, §4

Structure (SMILES) | Pre-emergence activity (GR80) SETVI
CCN(CC)C(=S)n1cnc(S(=O)(=O)C(F)(F)C(F)(F)Br)n1 [Example 82] | 100 g/ha
CON(C)C(=O)n1cnc(S(=O)(=O)C(F)(F)Br)n1 [Example 45] | 300 g/ha
COCCN(C)C(=O)n1cnc(S(=O)(=O)C(F)(F)C(F)F)n1 [Example 64] | 100 g/ha

Test system: AGSST (creeping bentgrass)
Assay: Pre-emergence herbicidal activity, cool season
Format: in vivo, Agrostis stolonifera
Details: GR80 = lowest tested rate (300, 100, 30, 10 g/ha) with 80% or greater inhibition; approx. 14 days after treating; 18/13° C.
Experimental: as §1, §2, §3, §4

Structure (SMILES) | Pre-emergence activity (GR80) AGSST
CCN(CC)C(=S)n1cnc(S(=O)(=O)C(F)(F)C(F)(F)Br)n1 [Example 82] | 300 g/ha
COCCN(C)C(=O)n1cnc(S(=O)(=O)C(F)(F)C(F)F)n1 [Example 64] | 100 g/ha

Test system: POLCO (wild buckwheat)
Assay: Pre-emergence herbicidal activity, cool season
Format: in vivo, Polygonum convolvulus
Details: lowest tested rate with 80% or greater inhibition; rates 300, 100, 30, 10 g/ha; about 14 days
Experimental: as §1, §2, §3, §4

Structure (SMILES) | Pre-emergence activity GR80, POLCO
CCN(CC)C(=S)n1cnc(S(=O)(=O)C(F)(F)C(F)(F)Br)n1 [Example 82] | 300 g/ha
CON(C)C(=O)n1cnc(S(=O)(=O)C(F)(F)Br)n1 [Example 45] | 100 g/ha
COCCN(C)C(=O)n1cnc(S(=O)(=O)C(F)(F)C(F)F)n1 [Example 64] | 100 g/ha
